Test results taken from US9980931B2, “Use of glycyl glutamine against depression” (priority 2013, dated 2018).
Like-named read-outs stand apart in the source and are kept apart here. Peptide text beside a SMILES is read from it.

Tests used:
[1] = test system: serotonin output at the nucleus accumbency section of the brain; experiment: Brain micro-dialysis, serotonin output after intracerebroventricular injection; format: in vivo, rats; conditions: 100 nmol single intracerebroventricular dose; 2 hours monitoring; p<0.001; FIGS. 4 and 5
Description: The source of the antidepressant effects of Gly-Gln, which is mentioned in the figure descriptions above, have been analyzed and shown in FIGS. 4 and 5. In FIGS. 4 and 5; the effect of Gly-Gin on the serotonin output at the nucleus accumbency section of the brain upon intracerebroventricular Gly-Gln injection can be seen. […] An increase in serotonin outputs can be observed in all time intervals throughout 2 hours of monitoring period following the Gly-Gln injection; however, no serotonin output could be observed from the rodents in the control group who had been administered saline injections by the same way. Serotonin, which is structurally a monoamine neurotransmitter, is a hormone, which makes people feel happy, energetic and lively. When, the subject matter hormone serotonin is deficient in people, they feel depressive, tired and boring. […] Furthermore, the word “Saline” indicated in FIGS. 4 and 5 means salty water. It is used for comparing with the tested medication by administering on the control group.

brainstem of rodents = conditions: applied on the brainstem of rodents iontophoretically (Parish et al., 1983); cited from earlier work
GABA levels in the brain [2] = experiment: GABA levels in the brain after administration; format: in vivo; conditions: Gly-Gln administration; data from our laboratory
Text: This innovation is related with the use of glycyl-glutamine in the treatment and/or prophylaxis of depression disorder and/or anxiety, which meets all above-mentioned requirements, eliminates all disadvantages and provides some advantages. The purpose of the current invention is to use Glycyl-Glutamine (Gly-Gln) in the treatment and/or prophylaxis of depression and/or anxiety via its effects in the brain other than its metabolic products' (glycine and glutamine) separate effects. […] Glutamine exerts antidepressant effects by increasing gamma-aminobutyric acid (GABA) in the brain however Gly-Gln generates antidepressant effects by increasing serotonin levels in the brain. […] Although glutamine administration increases GABA levels in the brain.

[3] = test system: thermogenesis caused by alpha-MSH; conditions: Resch and Millington, 1993; cited from earlier work
myocardial damage = conditions: Zhang et al., 2013; cited from earlier work
[4] = test system: cardiorespiratory depression; conditions: Unal et al., 1997; cited from earlier work
[5] = test system: conditioned place preference (nicotine); conditions: Goktalay et al., 2006; cited from earlier work
[6] = administered peripherally; cited from earlier work
use of alcohol = conditions: administered centrally (Resch et al., 2005; Simpson et al., 1998); cited from earlier work
[7] = test system: conditioned place preference caused by morphine; conditions: Cavun et al., 2005; cited from earlier work
GABA levels in the brain [8] = conditions: glutamine administration; cited from earlier work

## NCC(=O)N[C@@H](CCC(N)=O)C(=O)O [Gly-Gln, glycyl-glutamine] (H-Gly-Gln-OH)
[1]
  serotonin output at the nucleus accumbency section of the brain: extremely increased
Brainstem of rodents
  effect on cell ignition: inhibiting effect
GABA levels in the brain [2]
  GABA levels in the brain: does not alter
[3]
  thermogenesis caused by alpha-MSH: antagonized
Myocardial damage
  effects on myocardial damage after severe burn injury: beneficial effects
[4]
  cardiorespiratory depression caused by beta-endorphin: eliminated
  cardiorespiratory depression caused by beta-endorphin and morphine: eliminated
[5]
  conditioned place preference and deprivation syndrome (nicotine): prevented
[6]
  crossing of the blood-brain barrier: could not across
Use of alcohol
  use of alcohol: decreased
[7]
  addition and tolerance developments (morphine): inhibited
  conditioned place preference caused by morphine: prevented
  deprivation symptoms (morphine): decreased

## NC(=O)CC[C@@H]1NC(=O)CNC1=O [cyclo Gly-Gln]
[4]
  cardiorespiratory depression caused by beta-endorphin and morphine: eliminated
[6]
  crossing of the blood-brain barrier: could be across

## NC(=O)CC[C@H](N)C(=O)O [glutamine]
GABA levels in the brain [8]
  GABA levels in the brain: increases

## beta-endorphin (YGGFMTSEKSQTPLVTLFKNAIIKNAYKKGE; Beta-endorphin; UniProt P01189 237-267, looked up) [endogenous peptide from which Gly-Gln is produced, reference compound]
Use of alcohol
  use of alcohol: increased
